Measurements published in PMC11542736 (Cell reports. Physical science, 2024).

Biological target: TrpR^WT (Escherichia coli, UniProt P0A881)
Assay: Ptrp-GFP reporter, flow cytometry
Format: cell-based
Conditions: 1 mM ligand, E. coli Nissle 1917 trpR knockout, 37 °C, 8 h; derepression

For O=C(O)Cc1c[nH]c2ccccc12 [IAA, indole-3-acetic acid], the “Ptrp-GFP reporter, flow cytometry” value was “IPA, IAA, and IAld”.
